In paper PMC5410965 (ACS infectious diseases, 2016):

Assays:
[1] = test system: National Cancer Institute panel of sixty human cancer cell lines; experiment: National Cancer Institute panel of sixty human cancer cell lines, growth; assay type: cell-based; settings: 10 μM; NCI sixty human cancer cell lines
[2] = test system: HepG2 human liver carcinoma cell line; experiment: Toxicity to HepG2 cells; settings: concentrations as high as 50 μM
Mtb 20S = Mtb 20S (Mycobacterium tuberculosis, UniProt P9WHT9); settings: second-order rate constant for inhibition; substrate Suc-LLVY-AMC; triplicate
Mtb 20S, sequence (P9WHT9 58-291): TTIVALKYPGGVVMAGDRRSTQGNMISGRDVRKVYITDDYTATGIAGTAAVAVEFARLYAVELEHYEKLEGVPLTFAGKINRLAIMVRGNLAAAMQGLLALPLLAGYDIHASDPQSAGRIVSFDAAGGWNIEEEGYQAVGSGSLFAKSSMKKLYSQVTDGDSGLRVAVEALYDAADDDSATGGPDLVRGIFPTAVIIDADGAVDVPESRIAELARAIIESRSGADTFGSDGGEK
Mtb 20S, sequence (P9WHU1 whole entry partner): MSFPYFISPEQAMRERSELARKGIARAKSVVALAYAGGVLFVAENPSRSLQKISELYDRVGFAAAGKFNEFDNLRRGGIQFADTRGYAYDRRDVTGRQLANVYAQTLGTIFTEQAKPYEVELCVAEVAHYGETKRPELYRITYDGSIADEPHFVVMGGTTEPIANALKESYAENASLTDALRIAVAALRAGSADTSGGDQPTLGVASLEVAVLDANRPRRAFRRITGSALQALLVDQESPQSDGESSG

Mtb 20S versus human 20S = settings: human 20S over Mtb 20S; cited from earlier work

COC(=O)[C@@H](NC(=O)N[C@H](C(=O)N[C@H]1CCCCNC(=O)/C=C/[C@H](C(C)C)NC1=O)C(C)C)C(C)C [Compound 1, syringolin B methyl ester]
mean growth compared to untreated (vehicle) controls [1]: 27%
toxicity to HepG2 cells [2]: toxic
Mtb 20S kin/Ki (Mtb 20S): 4.60 M⁻¹ s⁻¹

CC(C)C[C@H](NC(=O)[C@H](Cc1ccccc1)NC(=O)c1cnccn1)B(O)O [bortezomib]
preference for reversible inhibition of human 20S (Mtb 20S versus human 20S): 18 fold
